US20130150434A1 (SOMAXON PHARMACEUTICALS, INC., priority 2006, published 2013)

What was measured:
[1] = system: chronic primary insomnia patients with sleep maintenance difficulties; experiment: Phase III study of doxepin, 8-hour PSG efficacy variables (WASO, TST, SE, LPS); conditions: ITT
Description: (§1) Patients with at least a 3-month history of primary insomnia, according to Diagnostic and Statistical Manual of Mental Disorders, Fourth Edition Text Revision (DSM-IV-TR)-defined primary insomnia were enrolled.
Patients were screened (Visit 1) to determine study eligibility and asked to discontinue any protocol-disallowed prescription or over-the-counter (OTC) medications used as sleep medication. At the beginning of the first week (polysomnography [PSG] Screening, Visit 2), eligible patients began two weeks of single-blind placebo dosing and had two consecutive nights of 8-hour PSG recording in the sleep center. Patients were required to meet the PSG screening criteria to remain eligible for the study. Patients were allowed to leave the sleep center during the day after the PSG Screening nights and continued to take single-blind placebo after PSG Screening (Visit 2) for five consecutive nights at home.
Patients were allowed to leave the sleep center during the day after the PSG nights and continued taking single-blind placebo for five consecutive nights at home.
(§2) After the PSG Screening and Baseline periods, patients began a 35-day double-blind treatment period during which they were given study drug supplies at each scheduled visit (Visits 4, 5, and 6). The scheduled study visits consisted of two consecutive nights of 8-hour PSG recording in the sleep center and next day assessments to assess sedative efficacy. Patients were asked to complete hangover/residual effects assessments, morning and evening questionnaires, and the Benzodiazepine Withdrawal Symptom Questionnaire (BWSQ) at each of these visits.
Primary Efficacy: The primary efficacy variable was wake after sleep onset (WASO) obtained on Night 1 as determined by PSG recordings using the ITT analysis set.
Additional PSG efficacy variables: Additional efficacy variables obtained on the first PSG assessment nights (Nights 1 and 29) included WASO (Night 29), wake time during sleep (WTDS), total sleep time (TST), sleep efficiency (SE), including whole night, third of the night, and by hour, and latency to persistent sleep (LPS), latency to Stage 2 sleep, number of awakenings after sleep onset (NAASO), total wake time (TWT), wake time after sleep (WTAS), and, sleep architecture including percentage and minutes of Stage 1, 2, and 3/4 non-rapid eye movement (NREM) sleep, percentage and minutes of rapid eye movement (REM) sleep, and latency to REM sleep.
(§3) Methods used to analyze other endpoints were the same as those used to analyze WASO. For LPS, latency to REM sleep, latency to Stage 2 sleep, and LSO, data were expected to be log-normally distributed and were analyzed using log-transformed values (base 10). The safety data were analyzed primarily using descriptive statistical methods.
(§4) All efficacy analyses were performed on the Intent-to-treat (ITT) analysis set. […] Data were analyzed as randomized and based on observed cases.

[2] = Phase III study of doxepin, safety assessments (body weight, residual effects, withdrawal symptoms, laboratory tests, ECG); format: in vivo, human
Description: Safety assessments including adverse events (AEs), vitals, and neurological assessments were performed throughout the study period. Other safety assessments, including clinical laboratory tests, electrocardiograms (ECGs), and physical examinations (PEs) were performed before and after the study treatment period. For early termination, all safety assessments, including AEs neurological assessments, clinical laboratory tests, ECGs, vitals, and PEs were performed.
Safety: Safety was assessed based on AEs, clinical laboratory tests (hematology, serum chemistry, and urinalysis), vital signs, physical examinations, neurological assessments, 12-lead ECGs, and ratings of hangover/residual effects (digit-symbol substitution test (DSST), symbol copying test (SCT), and the visual analog scale (VAS) for sleepiness), assessment of rebound insomnia using PSG recordings during the discontinuation period, and withdrawal symptoms using the benzodiazepine withdrawal symptom questionnaire (BWSQ).
Safety analyses included all randomized patients who received at least one dose of double-blind study medication. Treatment assignment for safety data was based on the treatment actually received.

[3] = system: chronic primary insomnia patients with sleep maintenance difficulties; experiment: Phase III study of doxepin, subjective assessments by morning questionnaire (sWASO, LSO, sTST); conditions: ITT; for LSO (subjective latency to sleep onset), Mean (SD) / sTST (subjective total sleep time), Mean (SD) / sTST, Median / sWASO (subjective wake after sleep onset), Mean (SD): Baseline (mean of Days −5 and −4)
Description: as §1, §2
Subjective Variables: Subjective assessments included data obtained on Days 2, 16, and 30, and included subjective TST (sTST), subjective WASO (sWASO), latency to sleep onset (LSO), subjective NAASO (sNAASO), and sleep quality (all assessed by a morning questionnaire), daytime functioning (assessed by an evening questionnaire), average nightly sTST during at-home administration (5 days before the PSG visit), CGI rating scale for Severity and Therapeutic Effect completed by the clinician and patient, and a measure of insomnia severity (assessed by ISI).
as §3, §4

[4] = doxepin 6 mg, Night 1, p<0.0001 vs placebo
[5] = doxepin 6 mg, Night 15, p 0.0157 vs placebo
[6] = doxepin 6 mg, Night 29, p 0.0003 vs placebo

**Q.** Which results are given for CN(C)CCC=C1c2ccccc2COc2ccccc21 [Doxepin, 11-(3-dimethylaminopropylidene)-6,11-dihydrodibenzo (b,e)oxepin]?
**A.** 8-hour WASO, Mean (SD) ([1]; doxepin 3 mg, Night 29, p 0.0299 vs placebo): 47.3 (43.53) minutes; SE - Hour 8 (PSG), Mean (SD) ([1]; doxepin 3 mg, Night 29, p 0.0524 vs placebo): 81.9 (20.81) %; LPS (PSG), Mean (SD) ([1]; doxepin 3 mg, Night 29, p 0.9008 vs placebo): 28.0 (25.99) minutes; 8-hour WASO, Mean (SD) ([1]; doxepin 6 mg group, Baseline (single-blind placebo)): 65.0 (33.23) minutes; LPS (latency to persistent sleep, PSG), Mean (SD) ([1]; doxepin 6 mg group, Baseline): 39.1 (34.10) minutes; SE - Hour 8 (PSG), Mean (SD) ([1]; doxepin 6 mg group, Baseline): 76.4 (21.26) %; TST (8-hour PSG), Mean (SD) ([1]; doxepin 6 mg group, Baseline): 380.3 (43.09) minutes; 8-hour WASO, Mean (SD) ([1]; doxepin 6 mg, Night 1 (primary), p<0.0001 vs placebo): 36.3 (26.14) minutes; SE (8-hour PSG), Mean (SD) [1, 4]: 87.6 (7.72) %; SE - Hour 8 (PSG), Mean (SD) [1, 4]: 88.4 (14.25) %; TST (8-hour PSG), Mean (SD) [1, 4]: 420.5 (37.07) minutes; 8-hour WASO, Mean (SD) ([1]; doxepin 6 mg, Night 15, p 0.0023 vs placebo): 41.9 (29.67) minutes; SE (8-hour PSG), Mean (SD) [1, 5]: 85.7 (10.70) %; TST (8-hour PSG), Mean (SD) [1, 5]: 411.3 (51.34) minutes; LPS (PSG), Mean (SD) ([1]; doxepin 6 mg, Night 15, p 0.8315 vs placebo): 31.8 (36.57) minutes; SE (8-hour PSG), Mean (SD) [1, 6]: 87.3 (9.37) %; TST (8-hour PSG), Mean (SD) [1, 6]: 419.1 (44.98) minutes; 8-hour WASO, Mean (SD) ([1]; doxepin 6 mg, Night 29, p 0.0012 vs placebo): 41.2 (37.91) minutes; SE - Hour 8 (PSG), Mean (SD) ([1]; doxepin 6 mg, Night 29, p 0.0034 vs placebo): 85.8 (19.66) %; LPS (PSG), Mean (SD) ([1]; doxepin 6 mg, Night 29, p 0.9989 vs placebo): 24.7 (21.48) minutes; Changes in other clinical laboratory tests, vital sign measurements, physical examinations, neurological assessments, or ECG parameters ([2]; 3 mg and 6 mg): no clinically relevant changes; Next day residual effects ([2]; 3 mg and 6 mg): no significant next day residual effects; Withdrawal effects ([2]; 3 mg and 6 mg, abrupt discontinuation): no withdrawal effects; Body Weight, Change from Screening, mean (±SD) ([2]; Doxepin HCl 3 mg): 0.3 (2.21) kg; Body Weight, Change from Screening, mean (±SD) ([2]; Doxepin HCl 6 mg): 0.0 (2.19) kg; LSO (subjective latency to sleep onset), Mean (SD) ([3]; Doxepin HCl 3 mg group): 61.4 (39.43) minutes; sTST (subjective total sleep time), Mean (SD) ([3]; Doxepin HCl 3 mg group): 330.0 (63.23) minutes; sTST, Median ([3]; Doxepin HCl 3 mg group): 330.0 min; sTST, Mean (SD) ([3]; Doxepin HCl 3 mg, Visit 4, Day 2, p 0.0169 vs placebo): 361.8 (64.03) minutes; LSO, Mean (SD) ([3]; Doxepin HCl 3 mg, Visit 4, Day 2, p 0.2296 vs placebo): 50.3 (36.73) minutes; sTST, Mean (SD) ([3]; Doxepin HCl 3 mg, Visit 5, Day 16, p 0.3260 vs placebo): 361.0 (67.22) minutes; LSO, Mean (SD) ([3]; Doxepin HCl 3 mg, Visit 5, Day 16, p 0.9838 vs placebo): 52.9 (35.17) minutes; LSO, Mean (SD) ([3]; Doxepin HCl 3 mg, Visit 6, Day 30, p 0.3567 vs placebo): 48.9 (34.71) minutes; sTST, Mean (SD) ([3]; Doxepin HCl 3 mg, Visit 6, Day 30, p 0.9972 vs placebo): 360.7 (68.72) minutes; LSO (subjective latency to sleep onset), Mean (SD) ([3]; Doxepin HCl 6 mg group): 64.0 (43.45) minutes; sTST (subjective total sleep time), Mean (SD) ([3]; Doxepin HCl 6 mg group): 339.3 (61.45) minutes; sTST, Median ([3]; Doxepin HCl 6 mg group): 330.0 min; sTST, Mean (SD) ([3]; Doxepin HCl 6 mg, Visit 4, Day 2, p 0.0256 vs placebo): 369.0 (78.39) minutes; LSO, Mean (SD) ([3]; Doxepin HCl 6 mg, Visit 4, Day 2, p 0.0960 vs placebo): 55.7 (56.96) minutes; sTST, Mean (SD) ([3]; Doxepin HCl 6 mg, Visit 5, Day 16, p 0.1611 vs placebo): 371.5 (72.06) minutes; LSO, Mean (SD) ([3]; Doxepin HCl 6 mg, Visit 5, Day 16, p 0.2689 vs placebo): 48.7 (42.35) minutes; sTST, Mean (SD) ([3]; Doxepin HCl 6 mg, Visit 6, Day 30, p 0.6831 vs placebo): 373.0 (75.30) minutes; LSO, Mean (SD) ([3]; Doxepin HCl 6 mg, Visit 6, Day 30, p 0.8242 vs placebo): 48.3 (47.40) minutes; sWASO (subjective wake after sleep onset), Mean (SD) ([3]; doxepin 3 mg group): 80.6 (48.12) minutes; sWASO, Mean (SD) ([3]; doxepin 3 mg, Visit 4, Day 2, p 0.0005 vs placebo): 55.7 (39.81) minutes; sWASO, Mean (SD) ([3]; doxepin 3 mg, Visit 5, Day 16, p 0.2582 vs placebo): 59.0 (54.14) minutes; sWASO, Mean (SD) ([3]; doxepin 3 mg, Visit 6, Day 30, p 0.8958 vs placebo): 63.1 (47.24) minutes; sWASO (subjective wake after sleep onset), Mean (SD) ([3]; doxepin 6 mg group): 78.2 (43.06) minutes; sWASO, Mean (SD) ([3]; doxepin 6 mg, Visit 4, Day 2, p 0.0007 vs placebo): 54.9 (44.76) minutes; sWASO, Mean (SD) ([3]; doxepin 6 mg, Visit 5, Day 16, p 0.3357 vs placebo): 58.4 (49.09) minutes; sWASO, Mean (SD) ([3]; doxepin 6 mg, Visit 6, Day 30, p 0.8020 vs placebo): 58.2 (53.07) minutes
